biological target: recombinant human baculovirus-expressed cMET (Homo sapiens (Human), UniProt P08581); test: C-MET Kinase Assay (HTRF KinEASE); format: biochemical; conditions: average of two or more determinations; read-out: c-MET IC50
Description: The cMET kinase assay was performed in 384-well Fluotrac™ 200 HiBase microplates using the HTRF KinEASE™ assay described above for AXL except that the assay volume was reduced to half. Enzyme concentration was 8 ng/mL of recombinant human baculovirus-expressed cMET while the substrate concentrations were 0.1 μM and 0.02 μM for the biotinylated peptide and ATP, respectively. Instead of the Multidrop Combi, the BioRAPTR® FRD microfluidic workstation (Beckman Coulter, Brea, Calif.) was utilized for reagent additions.
Inhibition curves for compounds were generated by plotting percent control activity versus log 10 of the concentration of compound. IC50 values were calculated by nonlinear regression using the sigmoidal dose-response (variable slope) equation in GraphPad Prism as follows: y=bottom+(top−bottom)/(1+10(log IC50−x)*Hill Slope) where y is the % kinase activity at a given concentration of compound, x is the logarithm of the concentration of compound, bottom is the % of control kinase activity at the highest compound concentration tested, and top is the % of control kinase activity at the lowest compound concentration examined. The values for bottom and top were fixed at 0 and 100, respectively.

Compound	IC50 [nM]
COc1cc2nccc(Oc3ccc(NC(=O)c4cn(CCOCc5ccccc5)c(=O)n(-c5ccc(F)cc5)c4=O)cc3F)c2cc1OC [Example 10, 1-(2-Benzyloxyethyl)-3-(4-fluorophenyl)-2,4-dioxo-1,2,3,4-tetrahydropyrimidine-5-carboxylic acid [4-(6,7-dimethoxyquinolin-4-yloxy)-3-fluorophenyl]-amide]	10 to 100
COc1cc2nccc(Oc3ccc(NC(=O)c4cn(CCOC(C)C)c(=O)n(-c5ccc(F)cc5)c4=O)cc3F)c2cc1OC [Example 12, 3-(4-Fluorophenyl)-1-(2-isopropoxyethyl)-2,4-dioxo-1,2,3,4-tetrahydropyrimidine-5-carboxylic acid [4-(6,7-dimethoxyquinolin-4-yloxy)-3-fluorophenyl]-amide]	10 to 100
COc1cc2nccc(Oc3ccc(NC(=O)c4cn(CCCOCc5ccccc5)c(=O)n(-c5ccc(F)cc5)c4=O)cc3F)c2cc1OC [Example 13, 1-(3-Benzyloxypropyl)-3-(4-fluorophenyl)-2,4-dioxo-1,2,3,4-tetrahydropyrimidine-5-carboxylic acid [4-(6,7-dimethoxyquinolin-4-yloxy)-3-fluorophenyl]-amide]	10 to 100
COc1cc2nccc(Oc3ccc(NC(=O)c4cn(CC=C(C)C)c(=O)n(-c5ccc(F)cc5)c4=O)cc3F)c2cc1OC [Example 15, 3-(4-Fluorophenyl)-1-(3-methyl-but-2-enyl)-2,4-dioxo-1,2,3,4-tetrahydropyrimidine-5-carboxylic acid [4-(6,7-dimethoxyquinolin-4-yloxy)-3-fluorophenyl]-amide]	10 to 100
COc1cc2nccc(Oc3ccc(NC(=O)c4cn(CCOCc5ccccc5)c(=O)n(-c5ccc(F)cc5)c4=O)cc3)c2cc1OC [Example 19, 1-(2-Benzyloxyethyl)-3-(4-fluoro-phenyl)-2,4-dioxo-1,2,3,4-tetrahydropyrimidine-5-carboxylic acid [4-(6,7-dimethoxyquinolin-4-yloxy)-phenyl]-amide]	10 to 100
CCn1cc(C(=O)Nc2ccc(Oc3ccnc4cc(OC)c(OC)cc34)c(F)c2)c(=O)n(C2CCCCC2)c1=O [Example 25, 3-Cyclohexyl-1-ethyl-2,4-dioxo-1,2,3,4-tetrahydropyrimidine-5-carboxylic acid [4-(6,7-dimethoxyquinolin-4-yloxy)-3-fluorophenyl]-amide]	101 to 1000
COc1cc2nccc(Oc3ccc(NC(=O)c4cn(CC5CC5)c(=O)n(-c5ccc(F)cc5)c4=O)nc3)c2cc1OC [Example 35, 1-Cyclopropylmethyl-3-(4-fluorophenyl)-2,4-dioxo-1,2,3,4-tetrahydropyrimidine-5-carboxylic acid [5-(6,7-dimethoxyquinolin-4-yloxy)pyridin-2-yl]-amide]	10 to 100
CCCCCn1cc(C(=O)Nc2ccc(Oc3ccnc4cc(OC)c(OC)cc34)c(F)c2)c(=O)n(-c2ccc(F)cc2)c1=O [Example 36, 3-(4-Fluorophenyl)-2,4-dioxo-1-pentyl-1,2,3,4-tetrahydropyrimidine-5-carboxylic acid [4-(6,7-dimethoxyquinolin-4-yloxy)-3-fluorophenyl]-amide]	10 to 100
CCOc1cc2nccc(Oc3ccc(NC(=O)c4cn(C(C)C)c(=O)n(-c5ccc(F)cc5)c4=O)cc3F)c2cc1OCC [Example 37, 3-(4-Fluorophenyl)-1-isopropyl-2,4-dioxo-1,2,3,4-tetrahydropyrimidine-5-carboxylic acid [4-(6,7-diethoxyquinolin-4-yloxy)-3-fluoro-phenyl]-amide]	101 to 1000
CCn1cc(C(=O)Nc2ccc(Oc3ccnc4cc(OCc5ccccc5)c(OC)cc34)c(F)c2)c(=O)n(-c2ccc(F)cc2)c1=O [Example 40, 1-Ethyl-3-(4-fluorophenyl)-2,4-dioxo-1,2,3,4-tetrahydropyrimidine-5-carboxylic acid [4-(7-benzyloxy-6-methoxyquinolin-4-yloxy)-3-fluorophenyl]-amide]	10 to 100

— patent publication US9745283B2, “Uracil derivatives as AXL and c-MET kinase inhibitors” (priority 2011, dated 2017)
